Measured values reported in patent publication US5932608A, “Melatonin derivative dermocosmetic compositions for whitening/depigmenting the skin” (Societe L'Oreal S.A., priority 1996, dated 1999).

Assays:
fungal tyrosinase = assay: in vitro test of inhibition of tyrosinase (dopachrome formation, 475 nm); format: biochemical; settings: for inhibition of the tyrosinase activity (decrease in the percentage of formation of dopachrome): 25° C., pH 6.5, FIGS. 1 and 2
Text: According to this test, the amount of dopachrome formed during the reaction sequence for the conversion of tyrosine into melanins was monitored by visible spectrometry at 475 nm. These reactions were catalyzed in vitro by fungal tyrosinase, in the presence of a reductive co-substrate (for example L-dopa in small amounts) in order to initiate the hydroxylation reaction of the L-tyrosine into L-dopa, which was then oxidized catalytically into dopaquinone and then into dopachrome.
The concentration of dopachrome formed over time was thus measured in the presence and absence of the inhibitor. The inhibition effect is expressed by lowering the maximum amount of dopachrome formed (optical density value at 475 nm read at the plateau of the curve) relative to the amount obtained in the absence of inhibitor.
A. 0.1M phosphate buffer pH 6.5 (1% Tween 20)
B. Stock solution of 2×10^-3 M L-tyrosine in A
C. Stock solution of 10^-4 M L-dopa in A
D. Stock solution of fungal tyrosinase containing 2400 units/ml in A
E. Stock solution of the inhibitor at 10^-2 M in A
The solutions C and D were prepared on the day of use.
Reference cell: 3 ml of A
Homogenize and equilibrate at 25° C.
Mixed together rapidly and observed the kinetics by measuring the absorbance as a function of time.

skin pigmentation = settings: exogenous melatonin; D. B. McElhinney et al., J. Invest. Dermatol, 102 (2), 258-9 (1994); cited from earlier work

Structure (SMILES) | inhibition of the tyrosinase activity (decrease in the percentage of formation of dopachrome) (fungal tyrosinase; 0.1 ml of solution E (inhibitor 10^-2 M stock) in 3 ml test cell) | inhibition of the tyrosinase activity (decrease in the percentage of formation of dopachrome) (fungal tyrosinase; 0.2 ml of solution E (inhibitor 10^-2 M stock) in 3 ml test cell) | inhibition of the tyrosinase activity (fungal tyrosinase; similar tests, amount of inhibitor not stated) | effect on skin pigmentation in man (skin pigmentation)
COc1cc2c(CCNC(C)=O)c[nH]c2cc1O [6-hydroxymelatonin] | significant inhibition | significant inhibition |  | 
COc1ccc2[nH]cc(CCNC(C)=O)c2c1 [melatonin, N-acetyl-5-methoxytryptamine] |  |  | absence of inhibition | no effect
